For 30 compounds, B-score functional assay, Ranking score and B-score binding assay results are on record in paper PMC5681660, “Reduced hepatitis B and D viral entry using clinically applied drugs as novel inhibitors of the bile acid transporter NTCP” (Scientific Reports, 2017).

Experiment [1] addresses T1, human NTCP (Homo sapiens, UniProt Q14973).
T1 sequence (Q14973 1-349): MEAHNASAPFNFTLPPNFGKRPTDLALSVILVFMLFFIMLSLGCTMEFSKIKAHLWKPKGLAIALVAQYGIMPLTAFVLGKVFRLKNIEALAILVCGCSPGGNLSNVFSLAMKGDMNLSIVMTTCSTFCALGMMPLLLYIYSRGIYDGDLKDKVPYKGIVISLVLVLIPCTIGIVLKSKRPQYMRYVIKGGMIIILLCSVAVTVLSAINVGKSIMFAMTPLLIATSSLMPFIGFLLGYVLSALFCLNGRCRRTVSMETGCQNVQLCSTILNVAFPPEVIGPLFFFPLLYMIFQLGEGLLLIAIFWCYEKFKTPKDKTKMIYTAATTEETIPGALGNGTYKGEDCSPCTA
The experiment in a line: Screening taurocholate uptake assay (96-well, [14C]taurocholate, 10 µM drug).

Experiment [2] concerns the target T1, human NTCP. The experiment in a line: Screening fluorescent competitive Myrcludex B-FITC binding assay (96-well, 10 µM drug).
Setting [3] is: Prestwick library screen, taurocholate uptake, 10 µM drug.
Where [4] appears, read: ranking score beside the functional and binding assay B-scores of the screen.
The mark [5] stands for this setting: Prestwick library screen, Myrcludex B-FITC binding, 10 µM drug.
[6] abbreviates: Prestwick library screen, 10 µM drug, B-score of taurocholate uptake.
Where [7] appears, read: combined ranking from functional and binding assay B-scores.
[8] abbreviates: Prestwick library screen, 10 µM drug, B-score of Myrcludex B-FITC binding.
The mark [9] stands for this setting: combined ranking from functional and binding screening assays.
The mark [10] stands for this setting: screen, 10 µM drug, taurocholate uptake.
The mark [11] stands for this setting: screen, 10 µM drug, Myrcludex B-FITC binding.

SMILES strings stand for the structures. Counter-ions that a name gives are not always drawn. Like-named read-outs stand apart in the source and are kept apart here.

For the compound `O=c1[nH]c(=O)n([C@H]2C[C@H](O)[C@@H](CO)O2)cc1F` [Floxuridine], the B-score functional assay in experiment [1] (setting [3]) was 0.659. Further, the Ranking score in experiment [1] (setting [4]) worked out at 772.114. In addition, the B-score binding assay in experiment [2] (setting [5]) was -0.009.

On to `Cc1ccnc(NS(=O)(=O)c2ccc(N)cc2)n1` [Sulfamerazine], for which the B-score functional assay in experiment [1] (setting [6]) stood at 1.015. Further, in experiment [1] (setting [7]), the Ranking score is on record as 923.898. The compound also showed a B-score binding assay in experiment [2] (setting [8]) of 0.205.

In experiment [1] (setting [3]), `Cc1cc(N)c2ccccc2[n+]1CCCCCCCCCC[n+]1c(C)cc(N)c2ccccc21` [Dequalinium dichloride] came in with a B-score functional assay of -0.527. In experiment [1] (setting [4]), the Ranking score is 680.714. In experiment [2] (setting [5]), this compound gave a B-score binding assay of 3.994.

For the compound `N[C@@H]1CON=C1O` [D-cycloserine], the B-score functional assay in experiment [1] (setting [3]) is recorded as -0.174. Besides, the Ranking score in experiment [1] (setting [4]) was 667.017. This compound returned a B-score binding assay in experiment [2] (setting [5]) of 0.464.

With `CC(C(O)c1ccc(O)cc1)N1CCC(Cc2ccccc2)CC1.CC(C(O)c1ccc(O)cc1)N1CCC(Cc2ccccc2)CC1.O=C(O)C(O)C(O)C(=O)O` (stereo not drawn) [Ifenprodil tartrate], the B-score functional assay in experiment [1] (setting [3]) was determined as 1.465. Moreover, the Ranking score in experiment [1] (setting [4]) stood at 727.635. The compound also returned a B-score binding assay in experiment [2] (setting [5]) of -0.263.

`CN1CCC(=C2c3ccccc3CCc3sccc32)CC1.O=C(O)CC(O)C(=O)O` [Pizotifen malate] registered a B-score functional assay in experiment [1] (setting [3]) of 0.156. The compound further showed a Ranking score in experiment [1] (setting [4]) of 745.131. Moreover, the B-score binding assay in experiment [2] (setting [5]) turned out to be 0.057.

Turning to `C[C@@H](c1ncncc1F)[C@](O)(Cn1cncn1)c1ccc(F)cc1F` [Voriconazole], the Ranking score in experiment [1] (setting [9]) is reported as 370.988. The same compound had a B-score functional assay in experiment [1] (setting [10]) of -0.582. This compound also came in with a B-score binding assay in experiment [2] (setting [11]) of -0.464.

As to `C[N+]12CCC(CC1)C(OC(=O)C(O)(c1ccccc1)c1ccccc1)C2` (stereo not drawn) [Clidinium bromide], the B-score functional assay in experiment [1] (setting [6]) was determined as 0.121. Further, the Ranking score in experiment [1] (setting [7]) stood at 877.232. This compound came in with a B-score binding assay in experiment [2] (setting [8]) of 0.853.

As to `Nc1nc(F)nc2c1ncn2[C@@H]1O[C@H](CO)[C@@H](O)[C@@H]1O` [Fludarabine], the B-score functional assay in experiment [1] (setting [3]) came to 1.199. The Ranking score in experiment [1] (setting [4]) came to 822.35. Moreover, the B-score binding assay in experiment [2] (setting [5]) is on record as -0.02.

`CN(C)CC/C=C1/c2ccccc2COc2ccc(CC(=O)O)cc21` [Olopatadine hydrochloride] yielded a B-score functional assay in experiment [1] (setting [6]) of 1.227. Besides, the Ranking score in experiment [1] (setting [7]) was determined as 1048.28. This compound also registered a B-score binding assay in experiment [2] (setting [8]) of 0.808.

Regarding `COc1ccc(C[C@@H](C)NC[C@H](O)c2ccc(O)c(NC=O)c2)cc1.COc1ccc(C[C@@H](C)NC[C@H](O)c2ccc(O)c(NC=O)c2)cc1.O=C(O)/C=C/C(=O)O` [Formoterol fumarate], the B-score functional assay in experiment [1] (setting [3]) is 1.513. In experiment [1] (setting [4]), this compound gave a Ranking score of 764.904. This compound came in with a B-score binding assay in experiment [2] (setting [5]) of -0.165.

On to `O=C(O)CCc1nc(-c2ccccc2)c(-c2ccccc2)o1` [Oxaprozin], for which the Ranking score in experiment [1] (setting [9]) was 341.015. This compound came in with a B-score functional assay in experiment [1] (setting [10]) of -0.957. For the same compound, the B-score binding assay in experiment [2] (setting [11]) was -0.29.

For `NCc1ccc(S(N)(=O)=O)cc1` [Mafenide hydrochloride], the B-score functional assay in experiment [1] (setting [3]) is listed as 0.341. Further, the Ranking score in experiment [1] (setting [4]) is 703.397. Also, the B-score binding assay in experiment [2] (setting [5]) is -0.055.

As for `Clc1ccc(C(Cn2ccnc2)OCc2csc3c(Cl)cccc23)c(Cl)c1` (stereo not drawn) [Sertaconazole nitrate], in experiment [1] (setting [3]), the B-score functional assay is on record as -0.094. The Ranking score in experiment [1] (setting [4]) is recorded as 730.855. Besides, the B-score binding assay in experiment [2] (setting [5]) came out at 0.814.

On to `COc1c(N2C[C@@H]3CCCN[C@@H]3C2)c(F)cc2c(=O)c(C(=O)O)cn(C3CC3)c12` [Moxifloxacin], for which the Ranking score in experiment [1] (setting [9]) is 388.165. The compound further showed a B-score functional assay in experiment [1] (setting [10]) of 0.4. For the same compound, the B-score binding assay in experiment [2] (setting [11]) is given as -1.402.

In experiment [1], `COc1ccc2[nH]c([S+]([O-])Cc3ncc(C)c(OC)c3C)nc2n1` (stereo not drawn) [Tenatoprazole] had a B-score functional assay of -1.232 and a Ranking score of 199.975. Also, the B-score binding assay in experiment [2] is recorded as -1.326.

On to `CCCCOC(=O)c1ccc(N)cc1` [Butamben], for which the B-score functional assay in experiment [1] (setting [6]) is 0.768. In addition, in experiment [1] (setting [7]), the Ranking score came to 1050.86. Moreover, the B-score binding assay in experiment [2] (setting [8]) was 1.315.

In turn, `CC(=O)OC[C@H]1O[C@@H]([S-])[C@H](OC(C)=O)[C@@H](OC(C)=O)[C@@H]1OC(C)=O.CCP(CC)CC.[Au+]` [Auranofin] gave a B-score functional assay in experiment [1] (setting [3]) of 0.729. This compound also gave a Ranking score in experiment [1] (setting [4]) of 748.559. Moreover, the B-score binding assay in experiment [2] (setting [5]) is given as -0.068.

`Cc1cc2c(cc1S(N)(=O)=O)S(=O)(=O)CCC2` [Meticrane]: the B-score functional assay in experiment [1] (setting [6]) was found to be 3.166. Besides, in experiment [1] (setting [7]), the Ranking score was 878.911. In experiment [2] (setting [8]), the B-score binding assay was -0.016.

In turn, `CC(C)(S)C(N)C(=O)O` (racemic) [D,L-Penicillamine] came in with a B-score functional assay in experiment [1] (setting [6]) of 0.176. In experiment [1] (setting [7]), the Ranking score is 845.872. Moreover, the B-score binding assay in experiment [2] (setting [8]) was 0.477.

The compound `O=c1n(CCCN2CCN(c3cccc(Cl)c3)CC2)nc2ccccn12` [Trazodone hydrochloride] yielded a B-score functional assay in experiment [1] (setting [3]) of 0.169. Further, the Ranking score in experiment [1] (setting [4]) is given as 707.824. The compound also displayed a B-score binding assay in experiment [2] (setting [5]) of -0.001.

In experiment [1], `CC(C)c1cccc(C(C)C)c1O` [Propofol] returned a B-score functional assay of -4.147 and a Ranking score of 144.551. For the same compound, the B-score binding assay in experiment [2] is listed as -0.036.

The compound `C#C[C@]1(O)CC[C@H]2[C@@H]3CCC4=C(CCC(=O)C4)[C@H]3CC[C@@]21C` [Norethynodrel] showed a B-score functional assay in experiment [1] (setting [3]) of 0.092. Besides, the Ranking score in experiment [1] (setting [4]) stood at 749.492. In addition, the B-score binding assay in experiment [2] (setting [5]) is 0.121.

As for `CC[C@@H](C(N)=O)N1CCCC1=O` [Levetiracetam], the B-score functional assay in experiment [1] (setting [3]) is reported as -0.058. Moreover, in experiment [1] (setting [4]), the Ranking score stood at 657.267. Besides, the B-score binding assay in experiment [2] (setting [5]) came out at 0.117.

In turn, `O=C(NC(Cc1cc(=O)[nH]c2ccccc12)C(=O)O)c1ccc(Cl)cc1` (stereo not drawn) [Rebamipide] returned a B-score functional assay in experiment [1] (setting [6]) of 0.089. In addition, the Ranking score in experiment [1] (setting [7]) amounted to 955.076. Further, the B-score binding assay in experiment [2] (setting [8]) came out at 2.49.

Turning to `CCOC(=O)[C@H](CCc1ccccc1)N[C@H]1CCc2ccccc2N(CC(=O)O)C1=O` [Benazepril HCl], the B-score functional assay in experiment [1] (setting [6]) is 1.384. Also, the Ranking score in experiment [1] (setting [7]) stood at 918.755. Besides, the B-score binding assay in experiment [2] (setting [8]) worked out at 0.109.

In the case of `Clc1cnccn1` [2-Chloropyrazine], the B-score functional assay in experiment [1] (setting [3]) came out at 1.648. Moreover, in experiment [1] (setting [4]), the Ranking score is on record as 812.047. Besides, in experiment [2] (setting [5]), the B-score binding assay is -0.068.

As for `CCCNC(C)C(=O)Nc1c(C)csc1C(=O)OC` (stereo not drawn) [Articaine hydrochloride], in experiment [1] (setting [9]), the Ranking score came to 451.414. The same compound registered a B-score functional assay in experiment [1] (setting [10]) of -1.04. The same compound came in with a B-score binding assay in experiment [2] (setting [11]) of 0.267.

For the compound `CCSc1ccc2c(c1)N(CCCN1CCN(C)CC1)c1ccccc1S2.O=C(O)CC(O)C(=O)O.O=C(O)CC(O)C(=O)O` [Thiethylperazine dimalate], in experiment [1] (setting [6]), the B-score functional assay is 0.623. In addition, in experiment [1] (setting [7]), the Ranking score is 1093.79. Also, the B-score binding assay in experiment [2] (setting [8]) came to 3.252.

Regarding `CN1CCC(=C2c3ccccc3CCc3cccnc32)CC1` [Azatadine maleate], the B-score functional assay in experiment [1] (setting [6]) stood at 0.678. The Ranking score in experiment [1] (setting [7]) was 1070.86. In addition, the B-score binding assay in experiment [2] (setting [8]) came to 1.844.
